Assay results as given in ChEMBL document CHEMBL3217526, “Bioguided discovery and pharmacophore modeling of the mycotoxic indole diterpene alkaloids penitrems as breast cancer proliferation, migration, and invasion inhibitors” (Medchemcomm, 2013).
Activity calls are given as the source filed them. The rule behind the calls is not given here.

Assays:
[1] = Cytotoxicity against human Hs578T cells assessed as growth inhibition at 10 uM; assay type: functional; conditions: Hs-578T, read-out: GI
SF-539 = test: Cytotoxicity against human SF539 cells assessed as growth inhibition at 10 uM; assay type: functional; conditions: read-out: GI
[2] = Cytotoxicity against human OVCAR3 cells assessed as growth inhibition at 10 uM; assay type: functional; conditions: OVCAR-3, read-out: GI
CAKI-1 = test: Cytotoxicity against human CAKI-1 cells assessed as growth inhibition at 10 uM; assay type: functional; conditions: read-out: GI
A549 = test: Cytotoxicity against human A549 cells assessed as growth inhibition at 10 uM; assay type: functional; conditions: read-out: GI
SK-MEL-2 = test: Cytotoxicity against human SK-MEL-2 cells assessed as growth inhibition at 10 uM; assay type: functional; conditions: read-out: GI
MDA-MB-231 [3] = test: Antiproliferative activity against human MDA-MB-231 cells after 72 hrs by MTT assay; assay type: functional, cell-based; conditions: MDA-MB-231, 72 h
NCI-H322M = test: Cytotoxicity against human NCI-H322M cells assessed as growth inhibition at 10 uM; assay type: functional; conditions: read-out: GI
COLO 205 = test: Cytotoxicity against human COLO205 cells assessed as growth inhibition at 10 uM; assay type: functional; conditions: read-out: GI
SNB-75 = test: Cytotoxicity against human SNB75 cells assessed as growth inhibition at 10 uM; assay type: functional; conditions: read-out: GI
[4] = Cytotoxicity against human OVCAR8 cells assessed as growth inhibition at 10 uM; assay type: functional; conditions: OVCAR-8, read-out: GI
KM12 = test: Cytotoxicity against human KM12 cells assessed as growth inhibition at 10 uM; assay type: functional; conditions: read-out: GI
K562 = test: Cytotoxicity against human K562 cells assessed as growth inhibition at 10 uM; assay type: functional; conditions: read-out: GI
MCF7 [5] = test: Antiproliferative activity against human MCF7 cells after 72 hrs by MTT assay; assay type: functional, cell-based; conditions: MCF7, 72 h
786-0 = test: Cytotoxicity against human 786-0 cells assessed as growth inhibition at 10 uM; assay type: functional; conditions: read-out: GI
MDA-MB-435 = test: Cytotoxicity against human MDA-MB-435 cells assessed as growth inhibition at 10 uM; assay type: functional; conditions: read-out: GI
[6] = Cytotoxicity against human OVCAR4 cells assessed as growth inhibition at 10 uM; assay type: functional; conditions: OVCAR-4, read-out: GI
[7] = Cytotoxicity against human NCI-ADR-RES cells assessed as growth inhibition at 10 uM; assay type: functional; conditions: read-out: GI
[8] = Cytotoxicity against human OVCAR5 cells assessed as growth inhibition at 10 uM; assay type: functional; conditions: OVCAR-5, read-out: GI
U-251 = test: Cytotoxicity against human U251 cells assessed as growth inhibition at 10 uM; assay type: functional; conditions: read-out: GI
RPMI-8226 = test: Cytotoxicity against human RPMI8226 cells assessed as growth inhibition at 10 uM; assay type: functional; conditions: read-out: GI
Malme-3M = test: Cytotoxicity against human MALME-3M cells assessed as growth inhibition at 10 uM; assay type: functional; conditions: read-out: GI
HCC 2998 = test: Cytotoxicity against human HCC2998 cells assessed as growth inhibition at 10 uM; assay type: functional; conditions: read-out: GI
[9] = Cytotoxicity against human UACC257 cells assessed as growth inhibition at 10 uM; assay type: functional; conditions: UACC-257, read-out: GI
NCI-H522 = test: Cytotoxicity against human NCI-H522 cells assessed as growth inhibition at 10 uM; assay type: functional; conditions: read-out: GI
RXF 393 = test: Cytotoxicity against human RXF393 cells assessed as growth inhibition at 10 uM; assay type: functional; conditions: read-out: GI
HT-29 = test: Cytotoxicity against human HT-29 cells assessed as growth inhibition at 10 uM; assay type: functional; conditions: read-out: GI
[10] = Cytotoxicity against human UO31 cells assessed as growth inhibition at 10 uM; assay type: functional; conditions: UO-31, read-out: GI
SW-620 = test: Cytotoxicity against human SW620 cells assessed as growth inhibition at 10 uM; assay type: functional; conditions: read-out: GI
SNB-19 = test: Cytotoxicity against human SNB19 cells assessed as growth inhibition at 10 uM; assay type: functional; conditions: read-out: GI
DU-145 = test: Cytotoxicity against human DU145 cells assessed as growth inhibition at 10 uM; assay type: functional; conditions: read-out: GI
SK-MEL-5 = test: Cytotoxicity against human SK-MEL-5 cells assessed as growth inhibition at 10 uM; assay type: functional; conditions: read-out: GI
MDA-MB-231 [11] = test: Cytotoxicity against human MDA-MB-231 cells assessed as growth inhibition at 10 uM; assay type: functional; conditions: read-out: GI
M14 = test: Cytotoxicity against human M14 cells assessed as growth inhibition at 10 uM; assay type: functional; conditions: read-out: GI
HOP-62 = test: Cytotoxicity against human HOP62 cells assessed as growth inhibition at 10 uM; assay type: functional; conditions: read-out: GI
[12] = Cytotoxicity against human EKVX cells assessed as growth inhibition at 10 uM; assay type: functional; conditions: read-out: GI
MOLT-4 = test: Cytotoxicity against human MOLT4 cells assessed as growth inhibition at 10 uM; assay type: functional; conditions: read-out: GI
NCI-H226 = test: Cytotoxicity against human NCI-H226 cells assessed as growth inhibition at 10 uM; assay type: functional; conditions: read-out: GI
HL-60(TB) = test: Cytotoxicity against human HL-60(TB) cells assessed as growth inhibition at 10 uM; assay type: functional; conditions: read-out: GI
MDA-MB-231 [13] = test: Antimigratory activity in human MDA-MB-231 cells after 24 hrs by wound healing assay; assay type: functional, cell-based; conditions: MDA-MB-231, 24 h
TK-10 = test: Cytotoxicity against human TK10 cells assessed as growth inhibition at 10 uM; assay type: functional; conditions: read-out: GI
MCF7 [14] = test: Cytotoxicity against human MCF7 cells assessed as growth inhibition at 10 uM; assay type: functional; conditions: read-out: GI
SF-268 = test: Cytotoxicity against human SF268 cells assessed as growth inhibition at 10 uM; assay type: functional; conditions: read-out: GI
[15] = Cytotoxicity against human HCT15 cells assessed as growth inhibition at 10 uM; assay type: functional; conditions: HCT-15, read-out: GI
T47D = test: Cytotoxicity against human T47D cells assessed as growth inhibition at 10 uM; assay type: functional; conditions: read-out: GI
LOX IMVI = test: Cytotoxicity against human LOXIMVI cells assessed as growth inhibition at 10 uM; assay type: functional; conditions: read-out: GI
MDA-MB-468 = test: Cytotoxicity against human MDA-MB-468 cells assessed as growth inhibition at 10 uM; assay type: functional; conditions: read-out: GI
SK-MEL-28 = test: Cytotoxicity against human SK-MEL-28 cells assessed as growth inhibition at 10 uM; assay type: functional; conditions: read-out: GI
SK-OV-3 = test: Cytotoxicity against human SKOV3 cells assessed as growth inhibition at 10 uM; assay type: functional; conditions: read-out: GI
SR = test: Cytotoxicity against human SR cells assessed as growth inhibition at 10 uM; assay type: functional; conditions: read-out: GI
IGROV-1 = test: Cytotoxicity against human IGROV1 cells assessed as growth inhibition at 10 uM; assay type: functional; conditions: read-out: GI
Caenorhabditis elegans [16] = test: Toxicity in L1 stage Caenorhabditis elegans N2 assessed as viability and reproduction at 50 uM; assay type: organism-based; conditions: in vivo
Caenorhabditis elegans [17] = test: Toxicity in L1 stage Caenorhabditis elegans N2 assessed as viability and reproduction at 10 uM; assay type: organism-based; conditions: in vivo
MDA-MB-231 [18] = test: Antiinvasive activity against human MDA-MB-231 cells assessed as inhibition of cell invasion at 15 uM after 24 hrs by BME Cell invasion assay kit; assay type: functional
NCI-H23 = test: Cytotoxicity against human NCI-H23 cells assessed as growth inhibition at 10 uM; assay type: functional; conditions: read-out: GI
BT-549 = test: Cytotoxicity against human BT549 cells assessed as growth inhibition at 10 uM; assay type: functional; conditions: read-out: GI
SN12C = test: Cytotoxicity against human SN12C cells assessed as growth inhibition at 10 uM; assay type: functional; conditions: read-out: GI
PC-3 = test: Cytotoxicity against human PC3 cells assessed as growth inhibition at 10 uM; assay type: functional; conditions: read-out: GI
CCRF-CEM = test: Cytotoxicity against human CCRF-CEM cells assessed as growth inhibition at 10 uM; assay type: functional; conditions: read-out: GI
ACHN = test: Cytotoxicity against human ACHN cells assessed as growth inhibition at 10 uM; assay type: functional; conditions: read-out: GI
HCT-116 = test: Cytotoxicity against human HCT116 cells assessed as growth inhibition at 10 uM; assay type: functional; conditions: read-out: GI
[19] = Cytotoxicity against human UACC62 cells assessed as growth inhibition at 10 uM; assay type: functional; conditions: UACC-62, read-out: GI
NCI-H460 = test: Cytotoxicity against human NCI-H460 cells assessed as growth inhibition at 10 uM; assay type: functional; conditions: read-out: GI

SMILES: C=C(C)[C@H]1O[C@H]2CC[C@@]3(C)[C@@](O)(CC[C@H]4[C@@H]5OC(C)(C)[C@H]6C[C@@H]7C(=C)Cc8ccc9[nH]c(c5c9c8[C@@]76O)[C@@]43C)[C@]23O[C@@H]3[C@H]1O
- inhibition of growth at 10 µM [1]: 92.2%
- inhibition of growth at 10 µM (SF-539): 90.7%
- inhibition of growth at 10 µM [2]: 111%
- inhibition of growth at 10 µM (CAKI-1): 107%
- inhibition of growth at 10 µM (A549): 92.6%
- inhibition of growth at 10 µM (SK-MEL-2): 96.4%
- IC50 (MDA-MB-231 [3]): 25.4 µM
- inhibition of growth at 10 µM (NCI-H322M): 99.4%
- inhibition of growth at 10 µM (COLO 205): 106%
- inhibition of growth at 10 µM (SNB-75): 84.4%
- inhibition of growth at 10 µM [4]: 96.9%
- inhibition of growth at 10 µM (KM12): 110%
- inhibition of growth at 10 µM (K562): 76.9%
- IC50 (MCF7 [5]): 17.5 µM
- inhibition of growth at 10 µM (786-0): 96.2%
- inhibition of growth at 10 µM (MDA-MB-435): 106%
- inhibition of growth at 10 µM [6]: 109%
- inhibition of growth at 10 µM [7]: 109%
- inhibition of growth at 10 µM [8]: 115%
- inhibition of growth at 10 µM (U-251): 99%
- inhibition of growth at 10 µM (RPMI-8226): 72.5%
- inhibition of growth at 10 µM (Malme-3M): 98.5%
- inhibition of growth at 10 µM (HCC 2998): 104%
- inhibition of growth at 10 µM [9]: 97.1%
- inhibition of growth at 10 µM (NCI-H522): 86%
- inhibition of growth at 10 µM (RXF 393): 95%
- inhibition of growth at 10 µM (HT-29): 90.6%
- inhibition of growth at 10 µM [10]: 72.5%
- inhibition of growth at 10 µM (SW-620): 106%
- inhibition of growth at 10 µM (SNB-19): 101%
- inhibition of growth at 10 µM (DU-145): 100%
- inhibition of growth at 10 µM (SK-MEL-5): 104%
- inhibition of growth at 10 µM (MDA-MB-231 [11]): 101%
- inhibition of growth at 10 µM (M14): 100%
- inhibition of growth at 10 µM (HOP-62): 99.2%
- inhibition of growth at 10 µM [12]: 104%
- inhibition of growth at 10 µM (MOLT-4): 78%
- inhibition of growth at 10 µM (NCI-H226): 98.2%
- inhibition of growth at 10 µM (HL-60(TB)): 101%
- IC50 (MDA-MB-231 [13]): 20.3 µM
- inhibition of growth at 10 µM (TK-10): 107%
- inhibition of growth at 10 µM (MCF7 [14]): 100%
- inhibition of growth at 10 µM (SF-268): 88.9%
- inhibition of growth at 10 µM [15]: 98.9%
- inhibition of growth at 10 µM (T47D): 94.8%
- inhibition of growth at 10 µM (LOX IMVI): 105%
- inhibition of growth at 10 µM (MDA-MB-468): 96.6%
- inhibition of growth at 10 µM (SK-MEL-28): 110%
- inhibition of growth at 10 µM (SK-OV-3): 103%
- inhibition of growth at 10 µM (SR): 91.9%
- inhibition of growth at 10 µM (IGROV-1): 89.7%
- Activity (Caenorhabditis elegans [16]): Non-toxic
- Activity (Caenorhabditis elegans [17]): Non-toxic
- inhibition (MDA-MB-231 [18]): inactive
- inhibition of growth at 10 µM (NCI-H23): 117%
- inhibition of growth at 10 µM (BT-549): 101%
- inhibition of growth at 10 µM (SN12C): 99.2%
- inhibition of growth at 10 µM (PC-3): 82.9%
- inhibition of growth at 10 µM (CCRF-CEM): 68%
- inhibition of growth at 10 µM (ACHN): 101%
- inhibition of growth at 10 µM (HCT-116): 92.4%
- inhibition of growth at 10 µM [19]: 101%
- inhibition of growth at 10 µM (NCI-H460): 100%
